These results are taken from patent US9388170B2, “Substituted aminoquinazolines useful as kinases inhibitors” (TELIGENE LTD., priority 2012, dated 2016).

Values after ≈ are worked out from the molar mass of the structure shown. Read-outs that look alike come from different tables or passages of the source. Where only a bound is given, the exact number is not on record here.

Data set [1] in a line: In vivo NCI-H1975 study AST and ALT change. Particulars: NCI-H1975 xenograft, nude mice, 15 mg/kg; in U/L (unit assumed). The method, then:
(§1) A representative protocol for the in vivo experiment is as followed to establish the subcutaneous NCI-H1975 cell line xenograft model in nude mice and to evaluate the in vivo therapeutic efficacy of the compounds: H1975 cells were cultured in RPMI1640 containing 10% fetal bovine serum, 1% L-glutamine, 100 U/mL penicillinG and 100 μg/mL streptomycin. Cells in logarithmic growth phase were harvested and resuspended in 1×PBS for implantation. Tumor xenografts were established by injecting tumor cells 5×10^6/mouse into the right flank by sc under sterile conditions. When the tumors reached an appropriate size (100-200 mm^3), mice were randomized into 6 mice per group (8 mice in control group). The tumors were measured using a caliper in two dimensions, length (a), and width (b). Tumor volumes were estimated from measurements of two diameters of the individual tumors as follows: Tumor Volume(mm^3)=(a×b^2)/2 The tumor sizes and animal body weights were measured twice a week. Mice were observed daily for clinical signs. Blood samples were collected 2 hours after last treatment, plasma samples were prepared and stored at -80° C. Tumor tissues were separated, weighed, taken picture, and subsequently stored at -80° C. for further analysis. All animal experiments were performed in accordance with the Guidelines for Use and Care of Animals of the University of Traditional Medicine. The parameters for in vivo efficacy evaluation were calculated according to the guidance of SFDA. Percent T/C (%) was calculated with the following formula: T/C (%)=(TRTV/CRTV)×100%, where TRTV and CRTV stand for relative tumor volume in treatment group and vehicle control group, respectively. Relative tumor volume (RTV) was calculated using the formula: RTV=Vt/V0, where Vt represents volume on testing day, and V0 represents volume on first day of treatment.

The nature of data set [2]: In vivo A431 xenograft body weight change. Particulars: nude mice, 10 mg/kg. The method, then: (§2) A representative protocol for the in vivo experiment to establish the subcutaneous A431 cell line xenograft model in nude mice and to evaluate the in vivo therapeutic efficacy of the compounds is similar to the protocol described for subcutaneous NCI—H1975 cell line xenograft model in nude mice. […] Tumor growth inhibition (TGI, %) was calculated.

The nature of data set [3]: In vivo NCI-H1975 xenograft study body weight change. Particulars: nude mice, 15 mg/kg. The method, then:
as §1

Data set [4] in a line: Solubility measurement (HPLC). The data set is classed as physicochemical. Particulars: thermodynamic from solid. The method, then:
The compound was diluted with acetonitrile to 100 mL.
The solution was shook for 2 minutes and left for 30 minutes at 25° C. After standing for 30 minutes, precipitate was formed in the bottom of the EP. The solutions was filtered through 0.2 um membrane filter, and then diluted by 50 times with water.
The standard and sample solutions were injected into the HPLC on a Shim-Pack CLC-ODS C18 column (150 mm×6.0 mm, 5 um) with the same volume. The mobile phase consisted of acetonitrile with 2% […] −20 mM KH2PO4 buffer (pH=6.8) at a flow rate of 1 mL/minutes (40:60). The detection wavelength is at 264 nm. Calculation: solubility of sample=the concentration of standard×Area of sample×50/Area of standard.

The subject of another data set is BT474. The experiment in a line: Cell proliferation assay (MTT), BT474. The data set is classed as cell-based. Particulars: Homo sapiens, BT-474, BT474 cells, 72 hours. The method, then:
(§3) A Representative Number of Compounds were Assayed Against Different Cancer Cell Lines Such as A431, BT474, NCI—H1975, SK—OV-3, SK—Br-3 and A549 Using the Cell Proliferation Assays:
(§4) 1. 5×10^3 cells per well in 100 μl of medium were seeded in 96-well plate, here the medium contained 5% FBS
(§5) 2. 24 hours later, 100 μl fresh medium was added with various concentrations of compounds into each well, while the medium here was free of FBS.
(§6) 3. After the cells were treated with compounds for 72 hours, 20 μl MTT (5 mg/ml) was added into each well, and then the assay plate was incubated at 37° C. for 4 more hours.
(§7) 4. The assay plate was centrifuged at 800 g for 10 min. The medium was aspirated, 150 μl DMSO was added into each well. The plate was gently shaken for 10 min.
(§8) 5. The absorbance at 570 nm was measured on the plate reader.

The test system of the next data set is SK—OV-3. The experiment in a line: Cell proliferation assay (MTT), SK-OV-3. The format is cell-based. Particulars: Homo sapiens, SK—OV-3 cells, 72 hours, read-out: potency (IC50), SK—OV-3 cell assay. The method, then: as §3, §4, §5, §6, §7, §8
For data set [5], the system named is NCI—H1975 cell line xenograft. The experiment in a line: In vivo subcutaneous NCI-H1975 xenograft efficacy. Particulars: nude mice. The method, then:
A representative protocol for the in vivo experiment is as followed to establish the subcutaneous NCI—H1975 cell line xenograft model in nude mice and to evaluate the in vivo therapeutic efficacy of the compounds: H1975 cells were cultured in RPMI1640 containing 10% fetal bovine serum, 1% L-glutamine, 100 U/mL penicillinG and 100 μg/mL streptomycin. Cells in logarithmic growth phase were harvested and resuspended in 1×PBS for implantation.
Tumor xenografts were established by injecting tumor cells 5×10^6/mouse into the right flank by sc under sterile conditions. When the tumors reached an appropriate size (100-200 mm^3), mice were randomized into 6 mice per group (8 mice in control group). The tumors were measured using a caliper in two dimensions, length (a), and width (b). […]
The tumor sizes and animal body weights were measured twice a week. […] The parameters for in vivo efficacy evaluation were calculated according to the guidance of SFDA. Percent T/C (%) was calculated with the following formula: T/C (%)=(TRTV/CRTV)×100%, where TRTV and CRTV stand for relative tumor volume in treatment group and vehicle control group, respectively. Relative tumor volume (RTV) was calculated using the formula: RTV=Vt/V0, where Vt represents volume on testing day, and V0 represents volume on first day of treatment. […]

For another data set, the system named is SK—Br-3. In words: Cell proliferation assay (MTT), SK-Br-3. The format is cell-based. Particulars: Homo sapiens, SK—Br-3 cells, 72 hours, read-out: potency (IC50), SK—Br-3 cell assay. The method, then: as §3, §4, §5, §6, §7, §8
Another data set relates to A431. The experiment in a line: Cell proliferation assay (MTT), A431. The format is cell-based. Particulars: Homo sapiens, A-431, A431 cells, 72 hours. The method, then: as §3, §4, §5, §6, §7, §8
The test system of another data set is A549. In words: Cell proliferation assay (MTT), A549. The data set is classed as cell-based. Particulars: Homo sapiens, A549 cells, 72 hours, read-out: potency (IC50), A549 cell assay. The method, then:
as §3, §4, §5, §6, §7, §8

Another data set deals with NCI—H1975. The experiment in a line: Cell proliferation assay (MTT), NCI-H1975. The format is cell-based. Particulars: Homo sapiens, NCI—H1975 cells, 72 hours, read-out: potency (IC50), NCI—H1975 cell assay. The method, then: as §3, §4, §5, §6, §7, §8
A further data set has as its target EGFR (T790M/L858R) (Homo sapiens (Human), UniProt P00533, L858R/T790M). The experiment in a line: In vitro EGFR (T790M/L858R) kinase activity inhibition assay (Kinase-Glo Plus luminescence). The data set is classed as biochemical. Particulars: 10 μM ATP, read-out: potency (IC50), enzyme assay (EGFR/T790M). The method, then: 2. […] It measures kinase activity by quantitating the amount of ATP remaining in solution following a kinase reaction. The luminescent signal from the assay is correlated with the amount of ATP present and is inversely correlated with the amount of kinase activity. […] Luminescence signal was measured using a BioTek Synergy 2 microplate reader.
3. […] The luminescence data were analyzed using the computer software, Graphpad Prism. […] The IC50 value was determined by the concentration causing a half-maximal percent activity.

For the next data set, the system named is A431 cell line xenograft. In words: In vivo subcutaneous A431 xenograft efficacy. Particulars: nude mice, 10 mg/kg by oral gavage once daily for 14 days. The method, then: as §2
Where [6] appears, read: aqueous buffer, pH 6.8 buffer solution (20 mM), 25° C., read-out: Solubility at pH 6.8.
Where [7] appears, read: buffer solution (pH 7.6), 25 °C, pH 7.6, aqueous buffer, read-out: Solubility at pH 7.6.

Chain of EGFR (T790M/L858R) (P00533 25-1210 T790M/L858R): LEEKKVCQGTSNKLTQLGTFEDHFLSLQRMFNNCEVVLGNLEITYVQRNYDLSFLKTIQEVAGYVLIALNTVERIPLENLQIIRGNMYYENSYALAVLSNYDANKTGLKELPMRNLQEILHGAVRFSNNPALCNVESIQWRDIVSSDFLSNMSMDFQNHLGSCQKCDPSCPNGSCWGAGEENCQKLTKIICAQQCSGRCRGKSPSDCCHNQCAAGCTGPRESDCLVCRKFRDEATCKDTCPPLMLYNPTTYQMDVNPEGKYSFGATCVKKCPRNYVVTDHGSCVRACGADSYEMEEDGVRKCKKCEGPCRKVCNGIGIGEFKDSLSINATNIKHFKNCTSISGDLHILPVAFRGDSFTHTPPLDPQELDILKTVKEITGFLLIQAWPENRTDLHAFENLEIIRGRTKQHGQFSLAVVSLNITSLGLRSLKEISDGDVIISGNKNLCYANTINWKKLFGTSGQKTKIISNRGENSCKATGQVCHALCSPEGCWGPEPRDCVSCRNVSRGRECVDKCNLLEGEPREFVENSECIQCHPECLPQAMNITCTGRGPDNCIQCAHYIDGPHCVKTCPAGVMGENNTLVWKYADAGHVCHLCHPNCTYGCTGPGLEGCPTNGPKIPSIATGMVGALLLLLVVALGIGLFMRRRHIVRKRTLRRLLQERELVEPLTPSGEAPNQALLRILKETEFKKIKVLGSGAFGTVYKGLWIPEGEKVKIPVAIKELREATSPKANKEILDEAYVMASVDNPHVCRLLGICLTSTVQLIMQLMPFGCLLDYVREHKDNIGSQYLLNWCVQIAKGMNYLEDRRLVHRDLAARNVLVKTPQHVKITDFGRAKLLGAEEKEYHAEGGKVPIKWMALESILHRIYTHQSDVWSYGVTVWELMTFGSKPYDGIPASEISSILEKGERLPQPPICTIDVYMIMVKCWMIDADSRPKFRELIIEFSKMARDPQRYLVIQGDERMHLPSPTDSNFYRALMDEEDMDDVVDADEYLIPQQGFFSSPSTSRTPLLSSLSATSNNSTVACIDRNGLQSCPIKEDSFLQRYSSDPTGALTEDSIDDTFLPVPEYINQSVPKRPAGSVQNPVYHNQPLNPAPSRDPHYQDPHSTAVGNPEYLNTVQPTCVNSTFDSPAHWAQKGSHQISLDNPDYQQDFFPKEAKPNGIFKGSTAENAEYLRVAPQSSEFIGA

In the case of `CN(C)C/C=C/C(=O)Nc1cc2c(Nc3ccc(F)c(Cl)c3)ncnc2cc1O[C@H]1CCOC1` [Afatinib, reference compound], in [1], the ALT was determined as 49.50 and the AST is on record as 265.67. In [2], the “Body weight change, Day 7” value is recorded as −2.2% and the “Body weight change, Day 10” value was found to be 0.4%. Besides, in [3], the “Day 7 Weight change” value is −0.9%.

Take `C#Cc1cccc(Nc2ncnc3cc(O[C@H]4CCOC4)c(NC(=O)/C=C/CN(C)C)cc23)c1` [Compound 13, (S,E)-4-(dimethylamino)-N-(4-((3-ethynylphenyl)amino)-7-((tetrahydrofuran-3-yl)oxy)quinazolin-6-yl)but-2-enamide]: the solubility at 30 min amounted to 150 µg/mL (≈ 328 µM) in [4] (setting [6]) and 25 µg/mL (≈ 54.6 µM) in data set [4] (setting [7]). Besides, the IC50 with BT474 is 0.057 µM; in the data set with SK—OV-3, less than 10 µM; with SK—Br-3, less than 10 µM; in the data set with A431 it was 3.1 µM; in the data set with A549, less than 10 µM; with NCI—H1975, less than 10 µM. Besides, the IC50 at EGFR (T790M/L858R) was less than 0.1 µM. Further, the “efficacy in the NCI—H1975 xenograft study” value in [5] is given as “good efficacy”. Besides, the “Day 7 Weight change” value in data set [3] amounted to 0.1%.

On to `C#Cc1cccc(Nc2ncnc3cc(O[C@H]4CCOC4)c(NC(=O)/C=C/CN(CC)CC)cc23)c1` [Compound 20, (S,E)-4-(diethylamino)-N-(4-((3-ethynylphenyl)amino)-7-((tetrahydrofuran-3-yl)oxy)quinazolin-6-yl)but-2-enamide], for which the solubility at 30 min is 3370 µg/mL (≈ 6950 µM) in [4] (setting [6]) and 238 µg/mL (≈ 490 µM) in data set [4] (setting [7]). Besides, the IC50 with SK—OV-3, in the data set with SK—Br-3, in the data set on A549 and with NCI—H1975 was less than 10 µM throughout. This molecule also yielded an ALT in data set [1] of 41.67. The AST in data set [1] is on record as 142.33. The “Body weight change, Day 7” value in data set [2] was 1.5%. Moreover, the “Body weight change, Day 10” value in data set [2] is on record as 4.3%. Also, the “Day 7 Weight change” value in data set [3] is reported as 3.5%. Moreover, the “Tumor growth inhibition (TGI, %)” value in the data set with A431 cell line xenograft is reported as 94%.

In general, solubility refers to the concentration that dissolves in the medium under given conditions.
